Data published in ChEMBL document CHEMBL4402527, “Recent advances in the development of cyclin-dependent kinase 7 inhibitors” (Eur J Med Chem, 2019).
Values belong to the compound of their own block, whether it stands above or below them.

Assays:
[1] = biological target: T1, Cyclin-dependent kinase 7 (Homo sapiens, UniProt P50613); experiment: Inhibition of CDK7 (unknown origin)
[2] = tested on: Jurkat; experiment: Cytotoxicity against human Jurkat cells assessed as reduction in cell viability; type: functional, cell-based
[3] = biological target: T1, Cyclin-dependent kinase 7; experiment: Inhibition of CDK7 (unknown origin) after 4 hrs
[4] = biological target: T2, Cyclin-dependent kinase 9 (Homo sapiens, UniProt P50750); experiment: Inhibition of CDK9 (unknown origin) after 4 hrs
T2 sequence (P50750 whole entry): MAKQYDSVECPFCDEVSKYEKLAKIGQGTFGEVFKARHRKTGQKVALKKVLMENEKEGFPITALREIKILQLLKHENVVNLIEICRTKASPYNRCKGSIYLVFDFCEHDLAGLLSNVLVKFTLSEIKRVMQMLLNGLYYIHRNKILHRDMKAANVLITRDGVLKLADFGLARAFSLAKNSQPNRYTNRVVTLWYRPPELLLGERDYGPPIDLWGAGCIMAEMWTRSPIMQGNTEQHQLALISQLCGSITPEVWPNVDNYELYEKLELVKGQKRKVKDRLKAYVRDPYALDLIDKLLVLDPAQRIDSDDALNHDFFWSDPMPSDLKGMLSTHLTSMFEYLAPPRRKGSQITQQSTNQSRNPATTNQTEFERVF

[5] = biological target: T3, Cyclin-dependent kinase 2 (Homo sapiens, UniProt P24941); experiment: Inhibition of CDK2 (unknown origin) after 4 hrs
[6] = tested on: MGC-803; experiment: Cytotoxicity against human MGC803 cells assessed as reduction in cell viability; type: functional, cell-based
[7] = tested on: AGS; experiment: Cytotoxicity against human AGS cells assessed as reduction in cell viability; type: functional, cell-based
[8] = biological target: T4, Cyclin-dependent kinase 5 (Homo sapiens, UniProt Q00535)
T4 sequence (Q00535 whole entry): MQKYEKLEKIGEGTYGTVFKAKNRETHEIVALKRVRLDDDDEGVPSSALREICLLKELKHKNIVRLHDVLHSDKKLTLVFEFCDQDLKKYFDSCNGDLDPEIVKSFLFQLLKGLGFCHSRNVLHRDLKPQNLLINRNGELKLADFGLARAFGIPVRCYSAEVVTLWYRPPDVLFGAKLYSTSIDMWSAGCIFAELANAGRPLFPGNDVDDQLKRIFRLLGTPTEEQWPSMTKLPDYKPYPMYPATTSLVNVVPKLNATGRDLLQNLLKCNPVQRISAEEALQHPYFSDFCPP

[9] = biological target: T3, Cyclin-dependent kinase 2
[10] = tested on: BGC-823; experiment: Anti-tumor activity against human BGC823 cells xenografted in invivo animal model assessed as reduction in tumor growth at 10 mg/kg, ip relative to control; type: functional; details: BGC-823, ip, read-out: TGI
[11] = biological target: T5, Cyclin-dependent kinase 1 (Homo sapiens, UniProt P06493)
T5 sequence (P06493 whole entry): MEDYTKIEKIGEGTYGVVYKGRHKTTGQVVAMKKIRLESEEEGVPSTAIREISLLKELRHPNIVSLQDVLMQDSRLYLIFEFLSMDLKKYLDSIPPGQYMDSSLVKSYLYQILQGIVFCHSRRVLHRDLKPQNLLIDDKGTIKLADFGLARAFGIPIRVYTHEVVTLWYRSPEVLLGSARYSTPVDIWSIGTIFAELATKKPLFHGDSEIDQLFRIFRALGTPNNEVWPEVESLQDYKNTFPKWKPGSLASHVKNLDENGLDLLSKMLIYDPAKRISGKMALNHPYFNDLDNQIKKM

[12] = biological target: T2, Cyclin-dependent kinase 9
[13] = biological target: T6, Cyclin-dependent kinase 4 (Homo sapiens, UniProt P11802); experiment: Inhibition of CDK4 (unknown origin) by luciferase reporter gene assay
T6 sequence (P11802 whole entry): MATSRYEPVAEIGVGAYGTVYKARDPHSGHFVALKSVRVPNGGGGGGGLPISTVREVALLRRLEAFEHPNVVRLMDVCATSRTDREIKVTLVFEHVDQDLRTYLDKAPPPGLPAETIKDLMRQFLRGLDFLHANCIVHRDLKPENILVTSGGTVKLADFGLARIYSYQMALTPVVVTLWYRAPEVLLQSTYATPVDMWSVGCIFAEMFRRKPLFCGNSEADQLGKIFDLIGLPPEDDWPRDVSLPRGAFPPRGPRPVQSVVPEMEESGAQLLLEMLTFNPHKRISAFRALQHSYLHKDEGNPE

[14] = biological target: T7, Cyclin-dependent kinase 6 (Homo sapiens, UniProt Q00534); experiment: Inhibition of CDK6 (unknown origin) by luciferase reporter gene assay
T7 sequence (Q00534 whole entry): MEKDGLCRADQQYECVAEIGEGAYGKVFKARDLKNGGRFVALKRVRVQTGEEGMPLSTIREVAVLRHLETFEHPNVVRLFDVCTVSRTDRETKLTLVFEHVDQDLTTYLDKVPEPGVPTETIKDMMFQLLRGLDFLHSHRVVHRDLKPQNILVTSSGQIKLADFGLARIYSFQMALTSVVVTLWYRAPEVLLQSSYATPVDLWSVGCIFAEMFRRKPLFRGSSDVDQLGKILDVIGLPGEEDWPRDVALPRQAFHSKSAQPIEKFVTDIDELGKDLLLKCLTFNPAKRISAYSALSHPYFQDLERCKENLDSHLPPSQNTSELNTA

[15] = biological target: T4, Cyclin-dependent kinase 5; experiment: Inhibition of CDK5 (unknown origin) by luciferase reporter gene assay
[16] = biological target: T5, Cyclin-dependent kinase 1; experiment: Inhibition of CDK1 (unknown origin) by luciferase reporter gene assay
[17] = tested on: MDA-MB-231; experiment: Cytotoxicity against human MDA-MB-231 cells assessed as reduction in cell viability; type: functional, cell-based
[18] = tested on: MDA-MB-468; experiment: Cytotoxicity against human MDA-MB-468 cells assessed as reduction in cell viability; type: functional, cell-based
[19] = biological target: CDK7/Cyclin H/MNAT1 (Homo sapiens, UniProt P50613); experiment: Inhibition of CDK7/CycH/MAT1 (unknown origin) by luciferase reporter gene assay; type: protein-complex assay
Chain of CDK7/Cyclin H/MNAT1 (P51946 whole entry): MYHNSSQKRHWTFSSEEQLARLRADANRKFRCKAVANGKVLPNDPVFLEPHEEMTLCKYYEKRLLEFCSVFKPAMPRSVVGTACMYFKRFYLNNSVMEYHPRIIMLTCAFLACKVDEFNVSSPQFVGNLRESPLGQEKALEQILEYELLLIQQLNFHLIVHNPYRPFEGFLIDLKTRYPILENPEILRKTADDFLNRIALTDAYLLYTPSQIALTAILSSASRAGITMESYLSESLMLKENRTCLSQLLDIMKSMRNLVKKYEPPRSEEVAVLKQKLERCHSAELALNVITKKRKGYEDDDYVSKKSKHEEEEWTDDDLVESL
Chain of CDK7/Cyclin H/MNAT1 (P50613 whole entry): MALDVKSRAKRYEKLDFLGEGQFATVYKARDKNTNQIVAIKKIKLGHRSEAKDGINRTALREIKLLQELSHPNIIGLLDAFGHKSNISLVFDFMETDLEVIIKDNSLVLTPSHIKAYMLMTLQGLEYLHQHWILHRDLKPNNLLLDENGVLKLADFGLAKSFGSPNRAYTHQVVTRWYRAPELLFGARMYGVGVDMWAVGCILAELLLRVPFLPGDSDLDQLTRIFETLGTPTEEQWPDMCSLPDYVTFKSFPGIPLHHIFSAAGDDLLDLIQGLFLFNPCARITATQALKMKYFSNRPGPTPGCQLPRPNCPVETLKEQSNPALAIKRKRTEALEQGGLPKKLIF
Chain of CDK7/Cyclin H/MNAT1 (P51948 whole entry, further chain): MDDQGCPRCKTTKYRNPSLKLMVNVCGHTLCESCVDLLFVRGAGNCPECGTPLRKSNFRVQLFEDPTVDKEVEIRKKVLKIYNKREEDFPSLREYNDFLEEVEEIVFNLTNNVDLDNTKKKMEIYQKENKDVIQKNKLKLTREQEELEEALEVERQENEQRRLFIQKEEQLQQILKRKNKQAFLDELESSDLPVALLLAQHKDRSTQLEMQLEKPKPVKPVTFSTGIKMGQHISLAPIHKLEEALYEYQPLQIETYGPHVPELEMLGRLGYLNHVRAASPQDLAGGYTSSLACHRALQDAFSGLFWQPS

[20] = biological target: Cyclin-dependent kinase 2/cyclin E1 (Homo sapiens, UniProt P24941); experiment: Inhibition of CDK2/cycE1 (unknown origin) by luciferase reporter gene assay; type: protein-complex assay
[21] = tested on: KOPTK1; experiment: Cytotoxicity against human KOPTK1 cells assessed as reduction in cell viability; type: functional, cell-based
[22] = tested on: KOPTK1; experiment: Anti-tumor activity against human KOPTK1 cells xenografted in invivo animal model assessed as reduction in tumor growth at 10 mg/kg, ip relative to control; type: functional; details: read-out: TGI
[23] = biological target: T6, Cyclin-dependent kinase 4; experiment: Inhibition of CDK4 (unknown origin)
[24] = biological target: T7, Cyclin-dependent kinase 6; experiment: Inhibition of CDK6 (unknown origin)

T1 sequence (P50613 whole entry): as the sequence (P50613 whole entry) above

Structure (SMILES): C=CC(=O)Nc1ccc(C(=O)Nc2cccc(Nc3n[nH]c4c3CN(C(=O)N[C@H](CN(C)C)c3ccccc3)C4(C)C)c2)cc1
IC50 [1]: 20 nM | IC50 [2]: 2 nM

Structure (SMILES): C=CC(=O)Nc1ccc(C(=O)Nc2n[nH]c3c2CN(C(=O)N[C@H](CN(C)C)c2ccccc2)C3(C)C)cc1
IC50 [1]: > 100 nM

Structure (SMILES): CC(C)c1cnn2c(NCc3ccccc3)cc(NC[C@H]3CCCC[C@@H]3O)nc12
IC50 [19]: 687 nM

Structure (SMILES): Clc1cnc(N[C@H]2CCCNC2)nc1-c1c[nH]c2ccccc12
IC50 [1]: < 20 nM | IC50 [9]: > 200 nM | IC50 [12]: > 200 nM

Structure (SMILES): Clc1cnc(N[C@@H]2CCCNC2)nc1-c1c[nH]c2ccccc12
IC50 [1]: 20 to 200 nM | IC50 [9]: > 200 nM | IC50 [12]: > 200 nM

Structure (SMILES): CC(C)c1cnn2c(NCc3ccccc3)cc(NC[C@]3(CO)CCNC3)nc12
IC50 [19]: 14 nM | IC50 [16]: 41 nM | IC50 [20]: 1 nM

Structure (SMILES): CN(C)C/C=C/C(=O)Nc1ccc(C(=O)Nc2cccc(Nc3ncc(Cl)c(-c4c[nH]c5ccccc45)n3)c2)cc1
IC50 [21]: 1 nM | inhibition in vivo at 10 mg/kg [22]: 10%

Structure (SMILES): CC(C)c1cnn2c(NCc3ccccc3N(C)C)nc(OC3CCN(C)CC3)nc12
IC50 [23]: > 10000 nM | IC50 [1]: < 5 nM | IC50 [9]: 3900 nM | IC50 [11]: > 10000 nM | IC50 [24]: > 10000 nM | IC50 [12]: 7450 nM

Structure (SMILES): CN(C)CCCC(=O)Nc1ccc(C(=O)Nc2cccc(Nc3ncc(Cl)c(-c4c[nH]c5ccccc45)n3)c2)cc1
IC50 [1]: 194 nM

Structure (SMILES): CC(C)c1cnn2c(NCc3ccccc3)cc(NCC3CCNCC3)nc12
IC50 [19]: 310 nM

Structure (SMILES): CC(C)c1cnn2c(NCc3ccccc3)cc(NC[C@]3(O)CCNC[C@H]3O)nc12 (racemic)
IC50 [20]: 2030 nM

Second part, led by results:

IC50 [3]: < 20 nM | IC50 [4]: 20 to 200 nM | IC50 [5]: > 200 nM
Structure (SMILES): FC(F)(F)c1cnc(N[C@H]2CCCNC2)nc1-c1n[nH]c2ccccc12

IC50 [1]: 27 nM | IC50 [8]: 222 nM | IC50 [9]: 96.9 nM | IC50 [11]: 13.9 nM | IC50 [12]: 134 nM
Structure (SMILES): CN(C)C/C=C/C(=O)Nc1cccc(C(=O)Nc2cccc(Nc3ncc(Cl)c(-c4c[nH]c5ccccc45)n3)c2)c1
IC50 [6]: 740 nM | IC50 [7]: 190 nM | inhibition in vivo at 10 mg/kg [10]: 50%

IC50 [13]: 42000 nM | IC50 [14]: 32100 nM | IC50 [15]: 9000 nM | IC50 [16]: 1520 nM
Structure (SMILES): CC(C)c1cnn2c(NCc3ccccc3)cc(NC[C@@H]3CCNC[C@H]3O)nc12
IC50 [17]: 1300 nM | IC50 [18]: 1500 nM

IC50 [3]: 20 nM | IC50 [4]: 20 to 200 nM
Structure (SMILES): Clc1cnc(NC2CCCCC2)nc1-c1c[nH]c2cccnc12

IC50 [1]: < 5 nM | IC50 [9]: < 50 nM | IC50 [12]: < 50 nM
Structure (SMILES): CC(C)c1cnn2c(NCc3cccc4[nH]ncc34)nc(OC3CCCNC3)nc12 (stereo unspecified)

IC50 [1]: < 100 nM
Structure (SMILES): C=CC(=O)Nc1ccc(C(=O)Nc2ccc(Nc3n[nH]c4c3CN(C(=O)N[C@H](CN(C)C)c3ccccc3)C4(C)C)cc2)cc1

IC50 [23]: > 10000 nM | IC50 [1]: 0.13 nM | IC50 [9]: 6.4 nM | IC50 [11]: 53 nM | IC50 [24]: > 10000 nM | IC50 [12]: 1710 nM
Structure (SMILES): CC(C)c1cnn2c(NCc3ccccc3-n3cccn3)nc(OC3CCCNC3)nc12 (stereo unspecified)

IC50 [1]: < 5 nM | IC50 [9]: < 50 nM | IC50 [12]: < 50 nM
Structure (SMILES): CC(C)c1cnn2c(NCc3cccc4c3cnn4C)nc(OC3CCCNC3)nc12 (stereo unspecified)
